From patent US20240226125A1, “USE OF SOTAGLIFLOZIN FOR THE TREATMENT OF PATIENTS WITH TYPE 1 DIABETES MELLITUS” (priority 2019, published 2024)

Test system: adult patients with Type 1 Diabetes Mellitus who have inadequate glycemic control with insulin therapy
Assay: inTandem 1 and inTandem 2 pooled clinical studies, safety events / main risks
Type: in vivo, human
Conditions: Week 52
[1] = 200 mg (N = 219), Baseline BMI <27 kg/m^2
[2] = 200 mg (N = 305), Baseline BMI ≥27 kg/m^2
[3] = 200 mg, Baseline BMI <27 kg/m^2
[4] = 200 mg, Baseline BMI ≥27 kg/m^2
[5] = 400 mg (N = 212), Baseline BMI <27 kg/m^2
[6] = 400 mg (N = 313), Baseline BMI ≥27 kg/m^2
[7] = 400 mg, Baseline BMI <27 kg/m^2

## CCOc1ccc(Cc2cc([C@@H]3O[C@H](SC)[C@@H](O)[C@H](O)[C@H]3O)ccc2Cl)cc1 [sotagliflozin, (2S,3R,4R,5S,6R)-2-(4-chloro-3-(4-ethoxybenzyl)phenyl)-6-(methylthio)tetrahydro-2H-pyran-3,4,5-triol]
200 mg (N = 108), Baseline BMI <27 kg/m^2
  Genital Mycotic Infections (male), Events [n (%) n]: patients n: 2
200 mg (N = 111), Baseline BMI <27 kg/m^2
  Genital Mycotic Infections (female), Events [n (%) n]: patients n: 8
200 mg (N = 148), Baseline BMI ≥27 kg/m^2
  Genital Mycotic Infections (female), Events [n (%) n]: patients n: 32
200 mg (N = 157), Baseline BMI ≥27 kg/m^2
  Genital Mycotic Infections (male), Events [n (%) n]: patients n: 6
[1]
  Positively Adjudicated Diabetic Ketoacidosis, Events [n (%) n]: patients n: 7
  Positively Adjudicated Severe Hypoglycemia, Events [n (%) n]: patients n: 17
[2]
  Positively Adjudicated Diabetic Ketoacidosis, Events [n (%) n]: patients n: 8
  Positively Adjudicated Severe Hypoglycemia, Events [n (%) n]: patients n: 13
[3]
  Diarrhea, EAIR per 1,000 Subject-years (95% CL): 89.76 (48.29, 131.23) per 1,000 Subject-years
  Diarrhea, Events [n (%) n]: events n: 23
  Diarrhea, Events [n (%) n]: patients (%): 8.2%
  Diarrhea, Events [n (%) n]: patients n: 18
  Diarrhea, Events per Subject per Year: 0.115 Events per Subject per Year
  Diarrhea, Relative Risk of EAIR (95% CL) Versus Placebo: 2.60 (1.11, 6.68)
  Documented hypoglycemia <55 mg/dL, Events per Subject per Year: 16.86 Events per Subject per Year
  Genital Mycotic Infections (female), EAIR per 1,000 Subject-years (95% CL): 78.17 (24.00, 132.34) per 1,000 Subject-years
  Genital Mycotic Infections (female), Events [n (%) n]: events n: 10
  Genital Mycotic Infections (female), Events [n (%) n]: patients (%): 7.2%
  Genital Mycotic Infections (female), Events per Subject per Year: 0.098 Events per Subject per Year
  Genital Mycotic Infections (female), Relative Risk of EAIR (95% CL) Versus Placebo: 2.57 (0.70, 11.96)
  Genital Mycotic Infections (male), EAIR per 1,000 Subject-years (95% CL): 20.37 (0.00, 48.60) per 1,000 Subject-years
  Genital Mycotic Infections (male), Events [n (%) n]: events n: 2
  Genital Mycotic Infections (male), Events [n (%) n]: patients (%): 1.9%
  Genital Mycotic Infections (male), Events per Subject per Year: 0.020 Events per Subject per Year
  Genital Mycotic Infections (male), Relative Risk of EAIR (95% CL) Versus Placebo: 1.06 (0.11, 10.19)
  Positively Adjudicated Diabetic Ketoacidosis, EAIR per 1,000 Subject-years (95% CL): 34.91 (9.05, 60.77) per 1,000 Subject-years
  Positively Adjudicated Diabetic Ketoacidosis, Events [n (%) n]: events n: 7
  Positively Adjudicated Diabetic Ketoacidosis, Events [n (%) n]: patients (%): 3.2%
  Positively Adjudicated Diabetic Ketoacidosis, Events per Subject per Year: 0.035 Events per Subject per Year
  Positively Adjudicated Severe Hypoglycemia, EAIR per 1,000 Subject-years (95% CL): 84.77 (44.48, 125.07) per 1,000 Subject-years
  Positively Adjudicated Severe Hypoglycemia, Events [n (%) n]: events n: 43
  Positively Adjudicated Severe Hypoglycemia, Events [n (%) n]: patients (%): 7.8%
  Positively Adjudicated Severe Hypoglycemia, Events per Subject per Year: 0.214 Events per Subject per Year
  Positively Adjudicated Severe Hypoglycemia, Relative Risk of EAIR (95% CL) Versus Placebo: 1.01 (0.51, 2.00)
[4]
  Diarrhea, EAIR per 1,000 Subject-years (95% CL): 57.25 (29.20, 85.30) per 1,000 Subject-years
  Diarrhea, Events [n (%) n]: events n: 22
  Diarrhea, Events [n (%) n]: patients (%): 5.2%
  Diarrhea, Events [n (%) n]: patients n: 16
  Diarrhea, Events per Subject per Year: 0.079 Events per Subject per Year
  Diarrhea, Relative Risk of EAIR (95% CL) Versus Placebo: 0.78 (0.40, 1.51)
  Documented hypoglycemia <55 mg/dL, Events per Subject per Year: 13.41 Events per Subject per Year
  Genital Mycotic Infections (female), EAIR per 1,000 Subject-years (95% CL): 240.02 (156.86, 323.19) per 1,000 Subject-years
  Genital Mycotic Infections (female), Events [n (%) n]: events n: 41
  Genital Mycotic Infections (female), Events [n (%) n]: patients (%): 21.6%
  Genital Mycotic Infections (female), Events per Subject per Year: 0.308 Events per Subject per Year
  Genital Mycotic Infections (female), Relative Risk of EAIR (95% CL) Versus Placebo: 3.37 (1.65, 7.46)
  Genital Mycotic Infections (male), EAIR per 1,000 Subject-years (95% CL): 41.05 (8.20, 73.89) per 1,000 Subject-years
  Genital Mycotic Infections (male), Events [n (%) n]: events n: 7
  Genital Mycotic Infections (male), Events [n (%) n]: patients (%): 3.8%
  Genital Mycotic Infections (male), Events per Subject per Year: 0.048 Events per Subject per Year
  Genital Mycotic Infections (male), Relative Risk of EAIR (95% CL) Versus Placebo: 5.96 (0.88, 138.01)
  Positively Adjudicated Diabetic Ketoacidosis, EAIR per 1,000 Subject-years (95% CL): 28.62 (8.79, 48.46) per 1,000 Subject-years
  Positively Adjudicated Diabetic Ketoacidosis, Events [n (%) n]: events n: 9
  Positively Adjudicated Diabetic Ketoacidosis, Events [n (%) n]: patients (%): 2.6%
  Positively Adjudicated Diabetic Ketoacidosis, Events per Subject per Year: 0.032 Events per Subject per Year
  Positively Adjudicated Diabetic Ketoacidosis, Relative Risk of EAIR (95% CL) Versus Placebo: 7.77 (1.24, 173.82)
  Positively Adjudicated Severe Hypoglycemia, EAIR per 1,000 Subject-years (95% CL): 46.51 (21.23, 71.80) per 1,000 Subject-years
  Positively Adjudicated Severe Hypoglycemia, Events [n (%) n]: events n: 25
  Positively Adjudicated Severe Hypoglycemia, Events [n (%) n]: patients (%): 4.3%
  Positively Adjudicated Severe Hypoglycemia, Events per Subject per Year: 0.089 Events per Subject per Year
  Positively Adjudicated Severe Hypoglycemia, Relative Risk of EAIR (95% CL) Versus Placebo: 0.57 (0.28, 1.14)
400 mg (N = 99), Baseline BMI <27 kg/m^2
  Genital Mycotic Infections (male), Events [n (%) n]: patients n: 9
400 mg (N = 113), Baseline BMI <27 kg/m^2
  Genital Mycotic Infections (female), Events [n (%) n]: patients n: 19
400 mg (N = 154), Baseline BMI ≥27 kg/m^2
  Genital Mycotic Infections (male), Events [n (%) n]: patients n: 7
400 mg (N = 159), Baseline BMI ≥27 kg/m^2
  Genital Mycotic Infections (female), Events [n (%) n]: patients n: 28
[5]
  Positively Adjudicated Diabetic Ketoacidosis, Events [n (%) n]: patients n: 9
  Positively Adjudicated Severe Hypoglycemia, Events [n (%) n]: patients n: 11
[6]
  Positively Adjudicated Diabetic Ketoacidosis, Events [n (%) n]: patients n: 11
  Positively Adjudicated Severe Hypoglycemia, Events [n (%) n]: patients n: 12
[7]
  Diarrhea, EAIR per 1,000 Subject-years (95% CL): 102.78 (56.56, 148.99) per 1,000 Subject-years
  Diarrhea, Events [n (%) n]: events n: 28
  Diarrhea, Events [n (%) n]: patients (%): 9.0%
  Diarrhea, Events [n (%) n]: patients n: 19
  Diarrhea, Events per Subject per Year: 0.151 Events per Subject per Year
  Diarrhea, Relative Risk of EAIR (95% CL) Versus Placebo: 2.98 (1.28, 7.60)
  Documented hypoglycemia <55 mg/dL, Events per Subject per Year: 15.74 Events per Subject per Year
  Genital Mycotic Infections (female), EAIR per 1,000 Subject-years (95% CL): 196.79 (108.30, 285.28) per 1,000 Subject-years
  Genital Mycotic Infections (female), Events [n (%) n]: events n: 31
  Genital Mycotic Infections (female), Events [n (%) n]: patients (%): 16.8%
  Genital Mycotic Infections (female), Events per Subject per Year: 0.321 Events per Subject per Year
  Genital Mycotic Infections (female), Relative Risk of EAIR (95% CL) Versus Placebo: 6.46 (2.09, 27.41)
  Genital Mycotic Infections (male), EAIR per 1,000 Subject-years (95% CL): 101.91 (35.33, 168.49) per 1,000 Subject-years
  Genital Mycotic Infections (male), Events [n (%) n]: events n: 10
  Genital Mycotic Infections (male), Events [n (%) n]: patients (%): 9.1%
  Genital Mycotic Infections (male), Events per Subject per Year: 0.113 Events per Subject per Year
  Genital Mycotic Infections (male), Relative Risk of EAIR (95% CL) Versus Placebo: 5.31 (1.26, 36.06)
  Positively Adjudicated Diabetic Ketoacidosis, EAIR per 1,000 Subject-years (95% CL): 48.68 (16.88, 80.49) per 1,000 Subject-years
  Positively Adjudicated Diabetic Ketoacidosis, Events [n (%) n]: events n: 9
  Positively Adjudicated Diabetic Ketoacidosis, Events [n (%) n]: patients (%): 4.2%
